Patent US20140350370A1, “GLUCOSE SENSING ASSAY” (The Texas A&M University System, priority 2013, published 2014)
Like-named read-outs stand apart in the source and are kept apart here.

Assays:
[1] = molecular target: T1, ConA (Canavalia ensiformis, UniProt P02866); conditions: cited from earlier work
[2] = molecular target: T1, ConA
Protocol: To explore whether the interaction of ConA with the core trimannose leads to aggregation in free solution, dynamic light scattering (DLS) measurements were performed. […] The TRIS buffer was 10 mM TRIS, 1 M NaCl, 1 mM CaCl2, 1 mM MnCl2, at pH 7.4. The dextran was 2 MDa and used as received from Sigma.
As controls, solutions of the individual components were also scanned to determine the particle size in the absence of aggregation. The final concentration was 3 μM for the competing ligand and 3 μM for ConA. Negative controls were run for each competing ligand (3 μM) without ConA present. ConA was also independently added to a separate control cuvette (3 μM). All solutions were in TRIS buffer and were filtered prior to combining the solutions. After 12 hours, the solutions were mixed to allow for the re-suspension of any settled material and dynamic light scattering studies were performed. The reported data is the average particle size as determined by percent-volume.

Compound: O=C[C@H](O)[C@@H](O)[C@@H](O)[C@H](O)CO [galactose]
- affinity to ConA [1]: no affinity

Compound: methyl mannose
- binding affinity to ConA relative to glucose ([1]; known value): 20-40 times

Compound: OC[C@H]1O[C@H](OC[C@H]2OC(O)[C@@H](O)[C@@H](O[C@H]3O[C@H](CO)[C@@H](O)[C@H](O)[C@@H]3O)[C@@H]2O)[C@@H](O)[C@@H](O)[C@@H]1O (stereo partly drawn) [trimannose, 3,6-Di-O-(α-D-mannopyranosyl)-D-mannopyranose]
- affinity to ConA ([1]; previously shown / literature value): ~330000 M⁻¹
- average size of particles in solution with ConA ([2]; 3 μM ligand, 3 μM ConA, TRIS buffer, 12 hours, 22° C., DLS): did not increased in size
- aggregation when paired with ConA ([2]; summary statement, DLS study): no aggregation
